# Data reported in patent publication US10975077B2 (Novira Therapeutics, Inc., priority 2016, dated 2021).
# System: HBV (encapsidated HBV DNA, HepG2.2.15 cells)
# Assay: HBV replication inhibition assay, BDNA assay in HepG2.2.15 cells
# Format: cell-based
# Conditions: Activity in BDNA-assay
# Protocol: HBV replication inhibition by the disclosed compounds were determined in cells infected or transfected with HBV, or cells with stably integrated HBV, such as HepG2.2.15 cells (Sells et al. 1987). In this example, HepG2.2.15 cells were maintained in cell culture medium containing 10% fetal bovine serum (FBS), Geneticin, L-glutamine, penicillin and streptomycin. HepG2.2.15 cells were seeded in 96-well plates at a density of 40,000 cells/well and were treated with serially diluted compounds at a final DMSO concentration of 0.5% either alone or in combination by adding drugs in a checker box format. Cells were incubated with compounds for three days, after which medium was removed and fresh medium containing compounds was added to cells and incubated for another three days. At day 6, supernatant was removed and treated with DNase at 37° C. for 60 minutes, followed by enzyme inactivation at 75° C. for 15 minutes. Encapsidated HBV DNA was released from the virions and covalently linked HBV polymerase by incubating in lysis buffer (Affymetrix QS0010) containing 2.5 μg proteinase K at 50° C. for 40 minutes. HBV DNA was denatured by addition of 0.2 M NaOH and detected using a branched DNA (BDNA) QuantiGene assay kit according to manufacturer recommendation (Affymetrix). HBV DNA levels were also quantified using qPCR, based on amplification of encapsidated HBV DNA extraction with QuickExtraction Solution (Epicentre Biotechnologies) and amplification of HBV DNA using HBV specific PCR probes that can hybridize to HBV DNA and a fluorescently labeled probe for quantitation. In addition, cell viability of HepG2.2.15 cells incubated with test compounds alone or in combination was determined by using CellTitre-Glo reagent according to the manufacturer protocol (Promega). The mean background signal from wells containing only culture medium was subtracted from all other samples, and percent inhibition at each compound concentration was calculated by normalizing to signals from HepG2.2.15 cells treated with 0.5% DMSO using equation E1. % inhibition=(DMSOave−Xi)/DMSOave×100% E1: where DMSOave is the mean signal calculated from the wells that were treated with DMSO control (0% inhibition control) and Xi is the signal measured from the individual wells. EC50 values, effective concentrations that achieved 50% inhibitory effect, were determined by non-linear fitting using Graphpad Prism software (San Diego, Calif.) and equation E2: Y=Y min+(Y max −Y min)/(1+10(Log EC50−X)×HillSlope) E2: […]
# where Y represents percent inhibition values and X represents the logarithm of compound concentrations.
# Selected disclosed compounds were assayed in the HBV replication assay (BDNA assay), as described above and a representative group of these active compounds is shown in Table 6.
row,Compound,EC50
1,"CN1CC([S+](C)[O-])Cn2nc3c(c2C1=O)CN(C(=O)Nc1ccc(F)c(Cl)c1)CC3 (single isomer, unassigned) [Compound 026B, N-(3-chloro-4-fluoro-phenyl)-10-methyl-8-methylsulfinyl-11-oxo-1,3,4,7,8,9-hexahydropyrido[2,3]pyrazolo[2,4-b][1,4]diazepine-2-carboxamide]",500 to 1000 nM
2,"C[C@@H]1Cc2nn3c(c2CN1C(=O)Nc1ccc(F)c(Cl)c1)C(=O)N(C)CC(C)(F)C3 (single isomer, unassigned) [Compound 079_D2, (3R,8S*)—N-(3-chloro-4-fluorophenyl)-8-fluoro-3,8,10-trimethyl-11-oxo-1,3,4,7,8,9,10,11-octahydro-2H-pyrido[4′,3′:3,4]pyrazolo[1,5-a][1,4]diazepine-2-carboxamide]",1 to 100 nM
3,"CC1CN(C)C(=O)c2c3c(nn2C1)C[C@@H](C)N(C(=O)Nc1ccc(F)c(Cl)c1)C3 (single isomer, unassigned) [Compound 080_D2, (3R,8R*)—N-(3-chloro-4-fluorophenyl)-3,8,10-trimethyl-11-oxo-3,4,8,9,10,11-hexahydro-1H-pyrido[4′,3′:3,4]pyrazolo[1,5-a][1,4]diazepine-2 (7H)-carboxamide]",1 to 100 nM
4,"C[C@@H]1Cc2nn3c(c2CN1C(=O)Nc1ccc(F)c(C(F)(F)F)c1)C(=O)N(C)CC(CO)C3 (single isomer, unassigned) [Compound 081_D2, (3R,8R*)—N-(4-fluoro-3-(trifluoromethyl)phenyl)-8-(hydroxymethyl)-3,10-dimethyl-11-oxo-3,4,8,9,10,11-hexahydro-1H-pyrido[4′,3′:3,4]pyrazolo[1,5-a][1,4]diazepine-2 (7H)-carboxamide]",1 to 100 nM
5,"C[C@@H]1Cc2nn3c(c2CN1C(=O)Nc1cc(C(F)(F)F)c(F)cc1F)C(=O)N(C)CC(CO)C3 (single isomer, unassigned) [Compound 082_D1, (3R,8S*)—N-(2,4-difluoro-5-(trifluoromethyl)phenyl)-8-(hydroxmethyl)-3,10-dimethyl-11-oxo-1,3,4,7,8,9,10,11-octahydro-2H-pyrido[4′,3′:3,4]pyrazolo[1,5-a][1,4]diazepine-2-carboxamide]",1 to 100 nM
6,"C[C@@H]1Cc2nn3c(c2CN1C(=O)Nc1cc(C(F)(F)F)c(F)cc1F)C(=O)N(C)CC(CO)C3 (single isomer, unassigned) [Compound 082_D2, (3R,8R*)—N-(2,4-difluoro-5-(trifluoromethyl)phenyl)-8-(hydroxymethyl)-3,10-dimethyl-11-oxo-1,3,4,7,8,9,10,11-octahydro-2H-pyrido[4′,3′:3,4]pyrazolo[1,5-a][1,4]diazepine-2-carboxamide]",100 to 500 nM
7,"C[C@@H]1Cc2nn3c(c2CN1C(=O)Nc1ccc(F)c(C(F)(F)F)c1F)C(=O)N(C)CC(CO)C3 (single isomer, unassigned) [Compound 083_D2, (3R,8R*)—N-(2,4-difluoro-3-(trifluoromethyl)phenyl)-8-(hydroxymethyl)-3,10-dimethyl-11-oxo-1,3,4,7,8,9,10,11-octahydro-2H-pyrido[4′,3′:3,4]pyrazolo[1,5-a][1,4] diazepine-2-carboxamide]",1 to 100 nM
8,"C[C@@H]1Cc2nn3c(c2CN1C(=O)Nc1ccc(F)c(Br)c1F)C(=O)N(C)CC(CO)C3 (single isomer, unassigned) [Compound 084_D1, (3R,8S*)—N-(3-bromo-2,4-difluorophenyl)-8-(hydroxymethyl)-3,10-dimethyl-11-oxo-1,3,4,7,8,9,10,11-octahydro-2H-pyrido[4′,3′:3,4]pyrazolo[1,5-a][1,4]diazepine-2-carboxamide]",100 to 500 nM
9,"C[C@@H]1Cc2nn3c(c2CN1C(=O)Nc1ccc(F)c(Br)c1F)C(=O)N(C)CC(CO)C3 (single isomer, unassigned) [Compound 084_D2, (3R,8R*)—N-(3-bromo-2,4-difluorophenyl)-8-(hydroxymethyl)-3,10-dimethyl-11-oxo-1,3,4,7,8,9,10,11-octahydro-2H-pyrido[4′,3′:3,4]pyrazolo[1,5-a][1,4]diazepine-2-carboxamide]",1 to 100 nM
10,"C[C@@H]1Cc2nn3c(c2CN1C(=O)Nc1cc(Br)c(F)cc1F)C(=O)N(C)CC(CO)C3 (single isomer, unassigned) [Compound 085_D2, (3R,8R*)—N-(5-bromo-2,4-difluorophenyl)-8-(hydroxymethyl)-3,10-dimethyl-11-oxo-1,3,4,7,8,9,10,11-octahydro-2H-pyrido[4′,3′:3,4]pyrazolo[1,5-a][1,4]diazepine-2-carboxamide]",1 to 100 nM
11,"C[C@@H]1Cc2nn3c(c2CN1C(=O)Nc1ccc(F)c(Br)c1)C(=O)N(C)CC(CO)C3 (single isomer, unassigned) [Compound 086_D2, (3R,8R*)—N-(3-bromo-4-fluorophenyl)-8-(hydroxymethyl)-3,10-dimethyl-11-oxo-1,3,4,7,8,9,10,11-octahydro-2H-pyrido[4′,3′:3,4]pyrazolo[1,5-a][1,4]diazepine-2-carboxamide]",1 to 100 nM

# Same assay, conditions: Hepatitis B virus, HepG2.2.15, Activity in BDNA-assay
row,Compound,EC50
1,"COC1CN(C)C(=O)c2c3c(nn2C1)CCN(C(=O)Nc1ccc(F)c(Cl)c1)C3 (single isomer, unassigned) [Compound 016B, (R*)—N-(3-chloro-4-fluorophenyl)-8-methoxy-10-methyl-11-oxo-3,4,8,9,10,11-hexahydro-1H-pyrido[4′,3′:3,4]pyrazolo[1,5-a][1,4]diazepine-2 (7H)-carboxamide]",1 to 100 nM
2,"CN1CC([S+](C)[O-])Cn2nc3c(c2C1=O)CN(C(=O)Nc1ccc(F)c(Cl)c1)CC3 (single isomer, unassigned) [Compound 026A, N-(3-chloro-4-fluoro-phenyl)-10-methyl-8-methylsulfinyl-11-oxo-1,3,4,7,8,9-hexahydropyrido[2,3]pyrazolo[2,4-b][1,4]diazepine-2-carboxamide]",> 1000 nM
3,"C[C@@H]1Cc2nn3c(c2CN1C(=O)Nc1ccc(F)c(Cl)c1)C(=O)N(C)CC(C)(F)C3 (single isomer, unassigned) [Compound 079_D1, (3R,8R*)—N-(3-chloro-4-fluorophenyl)-8-fluoro-3,8,10-trimethyl-11-oxo-1,3,4,7,8,9,10,11-octahydro-2H-pyrido[4′,3′:3,4]pyrazolo[1,5-a][1,4]diazepine-2-carboxamide]",1 to 100 nM
4,"CC1CN(C)C(=O)c2c3c(nn2C1)C[C@@H](C)N(C(=O)Nc1ccc(F)c(Cl)c1)C3 (single isomer, unassigned) [Compound 080_D1, (3R,8S*)—N-(3-chloro-4-fluorophenyl)-3,8,10-trimethyl-11-oxo-3,4,8,9,10,11-hexahydro-1H-pyrido[4′,3′,3,4]pyrazolo[1,5-a][1,4] diazepine-2 (7H)-carboxamide]",1 to 100 nM
5,"C[C@@H]1Cc2nn3c(c2CN1C(=O)Nc1ccc(F)c(C(F)(F)F)c1)C(=O)N(C)CC(CO)C3 (single isomer, unassigned) [Compound 081_D1, (3R,8S*)—N-(4-fluoro-3-(trifluoromethyl)phenyl)-8-(hydroxymethyl)-3,10-dimethyl-11-oxo-3,4,8,9,10,11-hexahydro-1H-pyrido[4′,3′:3,4]pyrazolo[1,5-a][14]diazepine-2 (7H)-carboxamide]",1 to 100 nM
6,"C[C@@H]1Cc2nn3c(c2CN1C(=O)Nc1ccc(F)c(C(F)(F)F)c1F)C(=O)N(C)CC(CO)C3 (single isomer, unassigned) [Compound 083_D1, (3R,8S*)—N-(2,4-difluoro-3-(trifluoromethyl)phenyl)-8-(hydroxymethyl)-3,10-dimethyl-11-oxo-1,3,4,7,8,9,10,11-octahydro-2H-pyrido[4′,3′:3,4]pyrazolo[1,5-a][1,4] diazepine-2-carboxamide]",1 to 100 nM
7,"C[C@@H]1Cc2nn3c(c2CN1C(=O)Nc1cc(Br)c(F)cc1F)C(=O)N(C)CC(CO)C3 (single isomer, unassigned) [Compound 085_D1, (3R,8 S*)—N-(5-bromo-2,4-difluorophenyl)-8-(hydroxymethyl)-3,10-dimethyl-11-oxo-1,3,4,7,8,9,10,11-octahydro-2H-pyrido[4′,3′:3,4]pyrazolo[1,5-a][1,4]diazepine-2-carboxamide]",1 to 100 nM
8,"C[C@@H]1Cc2nn3c(c2CN1C(=O)Nc1ccc(F)c(Br)c1)C(=O)N(C)CC(CO)C3 (single isomer, unassigned) [Compound 086_D1, (3R,8S*)—N-(3-bromo-4-fluorophenyl)-8-(hydroxymethyl)-3,10-dimethyl-11-oxo-1,3,4,7,8,9,10,11-octahydro-2H-pyrido[4′,3′:3,4]pyrazolo[1,5-a][1,4]diazepine-2-carboxamide]",1 to 100 nM
